Reference: US4759880A, “Alkanoarachidonic acids” (Research Corporation, priority 1984, dated 1988)

Assays:
[1] = system: human gel-filtered platelet suspension; test: Inhibition of AA-induced platelet aggregation; assay type: cell-based; details: human gel-filtered platelet suspension containing 0.2% albumin
Description: (§1) Biological studies to define the profiles of these compounds reveal interesting and selective properties including, in vitro inhibition of SRS-A biosynthesis, 5-lipoxygenase inhibition, phospholiphase A2 inhibition and antithrombotic activity.

5-lipoxygenase = target: T1, 5-lipoxygenase (Rattus norvegicus, UniProt P12527); test: Inhibition of conversion of 14C-AA to 14C-5-HETE in supernatant from RBL-1 cells; assay type: biochemical
T1 construct: super natant from RBL-1 cells; endogenous in cells; host or cells: RBL-1 cells (supernatant)
T1 sequence (P12527 1-673): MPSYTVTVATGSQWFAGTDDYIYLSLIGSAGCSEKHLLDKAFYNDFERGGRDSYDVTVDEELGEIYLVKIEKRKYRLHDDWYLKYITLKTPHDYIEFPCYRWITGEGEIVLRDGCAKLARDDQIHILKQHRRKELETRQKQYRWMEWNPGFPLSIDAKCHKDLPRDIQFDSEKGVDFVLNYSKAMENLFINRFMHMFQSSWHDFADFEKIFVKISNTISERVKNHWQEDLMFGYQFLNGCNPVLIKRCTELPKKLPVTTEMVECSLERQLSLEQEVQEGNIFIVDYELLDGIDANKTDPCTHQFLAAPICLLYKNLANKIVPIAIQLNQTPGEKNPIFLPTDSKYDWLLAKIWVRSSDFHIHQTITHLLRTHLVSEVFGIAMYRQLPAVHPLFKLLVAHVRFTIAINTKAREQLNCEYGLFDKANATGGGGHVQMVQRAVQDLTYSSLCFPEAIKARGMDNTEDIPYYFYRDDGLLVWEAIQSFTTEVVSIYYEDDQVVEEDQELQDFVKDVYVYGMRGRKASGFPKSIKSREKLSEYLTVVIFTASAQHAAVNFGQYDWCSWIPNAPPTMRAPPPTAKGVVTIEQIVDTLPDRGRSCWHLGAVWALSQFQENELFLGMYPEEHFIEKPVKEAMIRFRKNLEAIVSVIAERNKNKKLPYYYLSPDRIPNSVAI
Description: as §1

inhibition at 100 µM (5-lipoxygenase): 86%
Compound: CCCCC/C=C\C/C=C\C/C=C\C1(/C=C\CCCC(=O)O)CC1 [compound 1]
inhibition at 80 µM [1]: 50%
